Results as given in the NIST ThermoML archive (doi:10.1021/je900732r).
Where “and” joins values, the source holds several entries; their conditions need not be identical. Equal entries are not always repeated. ± gives the expanded uncertainty stated by the source.

Tests used:
[1] = Liquid; for mass density: 101 kPa
[2] = mn = molality of the nth substance listed, in mol/kg; details: 101 kPa, Liquid

CO [methanol]
[1]
Details	mass density
283.15 K	800.55 ± 0.48 kg/m3 and 800.541 ± 0.48 kg/m3 and 800.548 ± 0.5 kg/m3
288.15 K	795.872 ± 0.49 kg/m3 and 795.866 ± 0.49 kg/m3 and 795.857 ± 0.51 kg/m3
293.15 K	791.172 ± 0.5 kg/m3 and 791.169 ± 0.5 kg/m3 and 791.162 ± 0.51 kg/m3
298.15 K	786.46 ± 0.51 kg/m3 and 786.452 ± 0.52 kg/m3 and 786.464 ± 0.5 kg/m3
303.15 K	781.742 ± 0.51 kg/m3 and 781.733 ± 0.51 kg/m3 and 781.722 ± 0.52 kg/m3
308.15 K	776.992 ± 0.52 kg/m3 and 776.979 ± 0.52 kg/m3 and 776.978 ± 0.53 kg/m3
313.15 K	772.214 ± 0.52 kg/m3 and 772.189 ± 0.53 kg/m3 and 772.2 ± 0.54 kg/m3

Details	speed of sound [m/s]
[1], 298.15 K, 101.33 kPa, Pulse-echo method	1101.2 ± 0.77

C[S+](C)[O-] [dimethyl sulfoxide]
[1]
Details	mass density
293.15 K	1100.22 ± 0.56 kg/m3 and 1100.23 ± 0.56 kg/m3
298.15 K	1095.19 ± 0.55 kg/m3 and 1095.2 ± 0.56 kg/m3
303.15 K	1090.17 ± 0.54 kg/m3 and 1090.18 ± 0.54 kg/m3
313.15 K	1080.12 ± 0.52 kg/m3 and 1080.12 ± 0.53 kg/m3
323.15 K	1070.08 ± 0.5 kg/m3 and 1070.08 ± 0.51 kg/m3
333.15 K	1060.04 ± 0.49 kg/m3 and 1060.03 ± 0.49 kg/m3

[O-][Cl+3]([O-])([O-])[O-].[O-][Cl+3]([O-])([O-])[O-].[Zn+2] [zinc perchlorate] + C[S+](C)[O-]
mass density [kg/m3], [2]
Details	293.15 K	298.15 K	303.15 K	313.15 K	323.15 K	333.15 K
m1 = 0.0168	1103.88 ± 0.57	1098.86 ± 0.56	1093.85 ± 0.55	1083.82 ± 0.54	1073.81 ± 0.52	1063.78 ± 0.5
m1 = 0.02409	1105.47 ± 0.58	1100.46 ± 0.57	1095.45 ± 0.56	1085.43 ± 0.54	1075.43 ± 0.52	1065.41 ± 0.51
m1 = 0.02918	1106.59 ± 0.58	1101.58 ± 0.57	1096.56 ± 0.56	1086.56 ± 0.54	1076.56 ± 0.53	1066.55 ± 0.51
m1 = 0.03465	1107.79 ± 0.58	1102.78 ± 0.57	1097.78 ± 0.56	1087.77 ± 0.55	1077.77 ± 0.53	1067.77 ± 0.51
m1 = 0.05104	1111.38 ± 0.59	1106.39 ± 0.58	1101.39 ± 0.57	1091.4 ± 0.56	1081.43 ± 0.54	1071.45 ± 0.52
m1 = 0.06794	1115.12 ± 0.6	1110.13 ± 0.59	1105.14 ± 0.58	1095.18 ± 0.56	1085.22 ± 0.55	1075.26 ± 0.53
m1 = 0.08574	1119.08 ± 0.61	1114.1 ± 0.6	1109.12 ± 0.59	1099.17 ± 0.57	1089.23 ± 0.56	1079.3 ± 0.54
m1 = 0.1022	1122.78 ± 0.62	1117.8 ± 0.61	1112.83 ± 0.6	1102.91 ± 0.58	1092.99 ± 0.57	1083.08 ± 0.55
m1 = 0.119	1126.55 ± 0.63	1121.58 ± 0.62	1116.62 ± 0.61	1106.7 ± 0.59	1096.8 ± 0.57	1086.9 ± 0.56
m1 = 0.1435	1132.09 ± 0.64	1127.14 ± 0.64	1122.19 ± 0.63	1112.3 ± 0.61	1102.43 ± 0.59	1092.57 ± 0.57
m1 = 0.1684	1137.8 ± 0.66	1132.85 ± 0.65	1127.91 ± 0.64	1118.05 ± 0.62	1108.21 ± 0.6	1098.37 ± 0.59

C[S+](C)[O-] [dimethyl sulfoxide] + [Cu+2].[O-][Cl+3]([O-])([O-])[O-].[O-][Cl+3]([O-])([O-])[O-]
[2], m2 = 0
Details	mass density [kg/m3]
293.15 K	1100.23 ± 0.56
298.15 K	1095.2 ± 0.56
303.15 K	1090.18 ± 0.55
313.15 K	1080.12 ± 0.53
323.15 K	1070.08 ± 0.51
333.15 K	1060.04 ± 0.49

C[S+](C)[O-] [dimethyl sulfoxide] + [Ni+2].[O-][Cl+3]([O-])([O-])[O-].[O-][Cl+3]([O-])([O-])[O-]
[2], m2 = 0
Details	mass density [kg/m3]
293.15 K	1100.22 ± 0.56
298.15 K	1095.19 ± 0.55
303.15 K	1090.17 ± 0.54
313.15 K	1080.12 ± 0.53
323.15 K	1070.08 ± 0.51
333.15 K	1060.04 ± 0.49
